Laboratory results reported in PubChem BioAssay (NCI).
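Each compound was tested at five concentrations against cells in 96-well plates for 48 hours. TGI is the concentration that stops growth completely.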

Columns and labels:
Test in all cases: NCI-60 cell line screen, 48 h
MALME-3M melanoma = system: MALME-3M melanoma
A549 NSCLC = system: A549 NSCLC
SNB-19 CNS = system: SNB-19 CNS
OVCAR-5 ovarian = system: OVCAR-5 ovarian
TK-10 renal = system: TK-10 renal
RXF 393 renal = system: RXF 393 renal
SK-OV-3 ovarian = system: SK-OV-3 ovarian
UO-31 renal = system: UO-31 renal
NCI-H23 lung = system: NCI-H23 lung
ACHN renal = system: ACHN renal
CCRF-CEM leukemia = system: CCRF-CEM leukemia
SF-539 CNS = system: SF-539 CNS
HL-60(TB) leukemia = system: HL-60(TB) leukemia
IGROV1 ovarian = system: IGROV1 ovarian
786-0 renal = system: 786-0 renal
HCT-116 colon = system: HCT-116 colon
HOP-92 NSCLC = system: HOP-92 NSCLC
COLO 205 colon = system: COLO 205 colon
SN12C renal = system: SN12C renal
MCF7 breast = system: MCF7 breast
EKVX NSCLC = system: EKVX NSCLC
LOX IMVI melanoma = system: LOX IMVI melanoma
BT-549 breast = system: BT-549 breast
SK-MEL-2 melanoma = system: SK-MEL-2 melanoma
SF-268 CNS = system: SF-268 CNS
SF-295 CNS = system: SF-295 CNS
NCI-H522 lung = system: NCI-H522 lung
NCI-H226 lung = system: NCI-H226 lung
MDA-N = system: MDA-N
K-562 leukemia = system: K-562 leukemia
SK-MEL-28 melanoma = system: SK-MEL-28 melanoma
NCI-H460 lung = system: NCI-H460 lung
U251 CNS = system: U251 CNS
A498 renal = system: A498 renal
MDA-MB-231 breast = system: MDA-MB-231 breast
DU-145 prostate = system: DU-145 prostate
MDA-MB-435 = system: MDA-MB-435
HT29 colon = system: HT29 colon
MOLT-4 leukemia = system: MOLT-4 leukemia
UACC-257 melanoma = system: UACC-257 melanoma
HS 578T breast = system: HS 578T breast
CAKI-1 renal = system: CAKI-1 renal
M14 melanoma = system: M14 melanoma
RPMI-8226 leukemia = system: RPMI-8226 leukemia
SNB-75 CNS = system: SNB-75 CNS
SW-620 colon = system: SW-620 colon
OVCAR-8 ovarian = system: OVCAR-8 ovarian
T-47D breast = system: T-47D breast
SR leukemia = system: SR leukemia
OVCAR-4 ovarian = system: OVCAR-4 ovarian
NCI/ADR-RES ovarian = system: NCI/ADR-RES ovarian
OVCAR-3 ovarian = system: OVCAR-3 ovarian
HOP-62 NSCLC = system: HOP-62 NSCLC
PC-3 prostate = system: PC-3 prostate
SK-MEL-5 melanoma = system: SK-MEL-5 melanoma
UACC-62 melanoma = system: UACC-62 melanoma
HCT-15 colon = system: HCT-15 colon

CCOC(=O)c1c(CN2CCCC2)n(-c2ccccc2)c2cc(Br)c(OC)cc12
TGI (MALME-3M melanoma): 30.4 µM | TGI (A549 NSCLC): 28.8 µM | TGI (SNB-19 CNS): > 100 µM | TGI (OVCAR-5 ovarian): 45.7 µM | TGI (TK-10 renal): 32.5 µM | TGI (RXF 393 renal): 17.5 µM | TGI (SK-OV-3 ovarian): 78.3 µM | TGI (UO-31 renal): 29.8 µM | TGI (NCI-H23 lung): 63.3 µM | TGI (ACHN renal): 35.3 µM | TGI (CCRF-CEM leukemia): 30.6 µM | TGI (SF-539 CNS): 72.6 µM | TGI (HL-60(TB) leukemia): 36 µM | TGI (IGROV1 ovarian): 45.6 µM | TGI (786-0 renal): 32 µM | TGI (HCT-116 colon): 26.5 µM | TGI (HOP-92 NSCLC): 33.2 µM | TGI (COLO 205 colon): 25.3 µM | TGI (SN12C renal): > 100 µM | TGI (MCF7 breast): 23.4 µM | TGI (EKVX NSCLC): 55.5 µM | TGI (LOX IMVI melanoma): 27.5 µM | TGI (BT-549 breast): 58.1 µM | TGI (SK-MEL-2 melanoma): 38.3 µM | TGI (SF-268 CNS): > 100 µM | TGI (SF-295 CNS): 30.4 µM | TGI (NCI-H522 lung): 31.6 µM | TGI (NCI-H226 lung): 35.6 µM | TGI (MDA-N): > 100 µM | TGI (K-562 leukemia): 43.3 µM | TGI (SK-MEL-28 melanoma): 35.3 µM | TGI (NCI-H460 lung): 35.3 µM | TGI (U251 CNS): 39.1 µM | TGI (A498 renal): 19.5 µM | TGI (MDA-MB-231 breast): 70.4 µM | TGI (DU-145 prostate): 69.2 µM | TGI (MDA-MB-435): > 100 µM | TGI (HT29 colon): 24 µM | TGI (MOLT-4 leukemia): 24.3 µM | TGI (UACC-257 melanoma): 28.6 µM | TGI (HS 578T breast): > 100 µM | TGI (CAKI-1 renal): > 100 µM | TGI (M14 melanoma): 36.6 µM | TGI (RPMI-8226 leukemia): 34 µM | TGI (SNB-75 CNS): 62.5 µM | TGI (SW-620 colon): 73.9 µM | TGI (OVCAR-8 ovarian): > 100 µM | TGI (T-47D breast): 38.6 µM | TGI (SR leukemia): 25 µM | TGI (OVCAR-4 ovarian): > 100 µM | TGI (NCI/ADR-RES ovarian): 80.8 µM | TGI (OVCAR-3 ovarian): 61.2 µM | TGI (HOP-62 NSCLC): 22.5 µM | TGI (PC-3 prostate): 77.2 µM | TGI (SK-MEL-5 melanoma): 25.3 µM | TGI (UACC-62 melanoma): 23.8 µM | TGI (HCT-15 colon): 34.1 µM
